From patent publication EP4725946A1, “IRAK4 DEGRADATION AGENT AND USE THEREOF” (Guangzhou Unirise Pharmaceutical Co., Ltd., priority 2023, dated 2024) come the findings set out here.

Read-outs that look alike come from different tables or passages of the source.

The nature of series [1]: Pharmacokinetic study in mice. As to conditions: mouse, male mice, plasma; for AUC(0-t): read-out: AUC0-t; for Cmax: read-out: Cmax. Format: in vivo. The protocol: Six male mice weighing 20-30 g were randomly divided into two groups. One group received an intravenous (IV) administration of the test compound at a dose of 2 mg/kg, while the other group received an oral (gavage) administration at a dose of 10 mg/kg. Blood samples were collected at 0.083, 0.25, 0.5, 1, 2, 4, 6, 8, and 24 hours post-administration. Plasma samples were processed and analyzed using LC/MS/MS in MRM)mode. A validated standard curve was established for the quantitative determination of the target compound in plasma, enabling the generation of plasma drug concentration-time profiles. Pharmacokinetic parameters were calculated using WinNonlin software with a non-compartmental model.

The target of series [2] is T1, IRAK4 protein (Homo sapiens, UniProt Q9NWZ3).
T1 sequence (Q9NWZ3 1-460): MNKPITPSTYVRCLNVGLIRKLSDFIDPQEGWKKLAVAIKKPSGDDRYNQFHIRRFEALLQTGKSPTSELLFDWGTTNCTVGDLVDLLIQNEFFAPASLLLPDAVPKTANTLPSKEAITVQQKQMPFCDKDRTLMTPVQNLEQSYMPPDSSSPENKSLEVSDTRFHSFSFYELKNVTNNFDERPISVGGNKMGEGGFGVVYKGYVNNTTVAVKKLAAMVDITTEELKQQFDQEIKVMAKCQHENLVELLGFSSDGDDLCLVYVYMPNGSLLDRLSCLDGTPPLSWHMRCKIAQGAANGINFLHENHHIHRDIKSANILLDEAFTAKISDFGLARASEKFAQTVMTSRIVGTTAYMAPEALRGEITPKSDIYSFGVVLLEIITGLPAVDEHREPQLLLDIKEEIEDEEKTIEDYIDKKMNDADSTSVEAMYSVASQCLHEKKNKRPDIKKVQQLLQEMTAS
As to the kind of experiment: IRAK4 Degradation Assay in THP-1 Cells (Western Blot). Format: cell-based. Details: endogenous in cells; host or cells: THP-1 cells. The protocol: In a 6-well cell culture plate, an appropriate number of THP-1 cells were seeded. The plate was placed in a 5% CO2 incubator at 37°C for overnight culture. Then, the test compound's dimethyl sulfoxide solution was added, with the final concentration ranging from 0.0128 to 1000 nM. After continuous culture for 24 hours, the culture medium was removed, and the cells were collected in a 1.5 mL centrifuge tube. After adding lysis buffer and grinding thoroughly, the mixture was placed on ice for 30 minutes. It was then centrifuged at 15,000 xg and 4°C for 20 minutes. The supernatant was taken, and the level of IRAK4 protein was detected by Western Blot.
On the technique in general: In western blotting, separated proteins are transferred to a membrane and probed.

Usually half-life stands for how long it takes for the measured level to halve. Read a low half-life as fast loss. The Tmax is the time at which the peak concentration occurs. As a reminder, the Cmax is the highest concentration seen after dosing. The Dmax is the largest share of the target that was removed. As usually defined, the DC50 is the concentration at which degradation of the target reaches its halfway point. For `Cn1c(=O)n(C2CCC(=O)NC2=O)c2cccc(N3CCC(CN4CCC5(CC4)Cc4cc(NC(=O)c6cnn7cccnc67)c(N6CCC(CO)CC6)cc4O5)CC3)c21` (stereo not shown) [Example 78], in series [1] (iv, i.v. (2 mg/kg)), the half-life was 1980 min and the AUC(0-t) was found to be 32700 ng·h/mL. Also, in series [1] (po, p.o. (10 mg/kg)), the Tmax is 1 h, the half-life was 395 min, the AUC(0-t) was 44900 ng·h/mL and the Cmax was determined as 2600 ng/mL. Also, the Dmax in series [2] (THP-1, THP-1 cells, 24 hours, 0.0128 to 1000 nM, IRAK4 protein level by Western Blot, read-out: Dmax%) turned out to be 94%. Further, the DC50 in series [2] (THP-1 cells, 24 hours, 0.0128 to 1000 nM, IRAK4 protein level by Western Blot, read-out: DC50) was determined as 0.86 nM.

As for `Cn1c(=O)n(C2CCC(=O)NC2=O)c2cccc(N3CCN(CCN4CCC5(CC4)Cc4cc(NC(=O)c6cnn7cccnc67)c(N6CCC(CO)CC6)cc4O5)CC3)c21` (stereo not shown) [Example 95], in series [1] (iv, i.v. (2 mg/kg)), the half-life was 130 min and the AUC(0-t) stood at 4570 ng·h/mL. Also, in series [1] (po, p.o. (10 mg/kg)), the Tmax is 2 h, the half-life is 167 min, the AUC(0-t) turned out to be 11100 ng·h/mL and the Cmax is 1210 ng/mL. Besides, in series [2], half-maximal degradation (DC50) was put at 0.89 nM. The Dmax in series [2] (THP-1) was 95%.
